Test results from patent publication US20220265694A1, “COMPOSITIONS AND METHODS FOR TREATING AN INFECTION” (CMPD LICENSING, LLC, priority 2016, published 2022).

Key:
Providencia rettgeri = experiment: Expected efficacy of antibiotic agents; conditions: expected efficacy against Providencia rettgeri; Gram: neg
Enterobacter sakazakii = experiment: Expected efficacy of antibiotic agents; conditions: expected efficacy against Enterobacter sakazakii; Gram: neg
Morganella morganii = experiment: Expected efficacy of antibiotic agents; conditions: expected efficacy against Morganella morganii; Gram: neg
Providencia stuartii = experiment: Expected efficacy of antibiotic agents; conditions: expected efficacy against Providencia stuartii; Gram: neg
Corynebacterium jeikeium = experiment: Expected efficacy of antibiotic agents; conditions: expected efficacy against Corynebacterium jeikeium; Gram: pos
Bartonella bacilliformis = experiment: Expected efficacy of antibiotic agents; conditions: expected efficacy against Bartonella bacilliformis; Gram: neg
Mycoplasma pneumoniae = experiment: Expected efficacy of antibiotic agents; conditions: expected efficacy against Mycoplasma pneumoniae; Gram: n/a
Enterobacter aerogenes = experiment: Expected efficacy of antibiotic agents; conditions: expected efficacy against Enterobacter aerogenes; Gram: neg
[1] = system: Methicillin resistant staph aureus (MRSA); experiment: Expected efficacy of antibiotic agents; conditions: expected efficacy against Methicillin resistant staph aureus (MRSA); Gram: pos
Neisseria meningitidis = experiment: Expected efficacy of antibiotic agents; conditions: expected efficacy against Neisseria meningitidis; Gram: neg
Streptococcus pyogenes = experiment: Expected efficacy of antibiotic agents; conditions: expected efficacy against Streptococcus pyogenes; Gram: pos
Bacteroides fragilis = experiment: Expected efficacy of antibiotic agents; conditions: expected efficacy against Bacteroides fragilis; Gram: anaer
Legionella pneumophila = conditions: expected efficacy against Legionella pneumophila; Gram: neg
Proteus mirabilis = experiment: Expected efficacy of antibiotic agents; conditions: expected efficacy against Proteus mirabilis; Gram: neg
Pseudomonas aeruginosa = experiment: Expected efficacy of antibiotic agents; conditions: expected efficacy against Pseudomonas aeruginosa; Gram: neg
Brucella species = conditions: expected efficacy against Brucella species; Gram: neg
Clostridium difficile = experiment: Expected efficacy of antibiotic agents; conditions: expected efficacy against Clostridium difficile; Gram: anaer
Klebsiella pneumoniae = experiment: Expected efficacy of antibiotic agents; conditions: expected efficacy against Klebsiella pneumoniae; Gram: neg
[2] = system: Acinetobacter calcoaceticus; experiment: Expected efficacy of antibiotic agents; conditions: expected efficacy against Acinetobacter calcoaceticus; Gram: neg
Chlamydia pneumoniae = experiment: Expected efficacy of antibiotic agents; conditions: expected efficacy against Chlamydia pneumoniae; Gram: n/a
Vibrio cholerae = experiment: Expected efficacy of antibiotic agents; conditions: expected efficacy against Vibrio cholerae; Gram: neg
Clostridium perfringens = conditions: expected efficacy against Clostridium perfringens; Gram: anaer
Enterococcus faecalis = experiment: Expected efficacy of antibiotic agents; conditions: expected efficacy against Enterococcus faecalis; Gram: pos
Francisella tularensis = conditions: expected efficacy against Francisella tularensis; Gram: neg
Acinetobacter baumannii = experiment: Expected efficacy of antibiotic agents; conditions: expected efficacy against Acinetobacter baumannii; Gram: neg
Bordetella pertussis = experiment: Expected efficacy of antibiotic agents; conditions: expected efficacy against Bordetella pertussis; Gram: neg
[3] = system: Staphylococcus aureus (MSSA); experiment: Expected efficacy of antibiotic agents; conditions: expected efficacy against Staphylococcus aureus (MSSA); Gram: pos
[4] = system: Staphylococcus epidermidis; experiment: Expected efficacy of antibiotic agents; conditions: expected efficacy against Staphylococcus epidermidis; Gram: pos
Streptococcus agalactiae = experiment: Expected efficacy of antibiotic agents; conditions: expected efficacy against Streptococcus agalactiae; Gram: pos
Enterococcus faecium = experiment: Expected efficacy of antibiotic agents; conditions: expected efficacy against Enterococcus faecium; Gram: pos
Proteus vulgaris = experiment: Expected efficacy of antibiotic agents; conditions: expected efficacy against Proteus vulgaris; Gram: neg
Pseudomonas fluorescens = experiment: Expected efficacy of antibiotic agents; conditions: expected efficacy against Pseudomonas fluorescens; Gram: neg
Citrobacter diversus = experiment: Expected efficacy of antibiotic agents; conditions: expected efficacy against Citrobacter diversus; Gram: neg
Chlamydia psittaci = conditions: expected efficacy against Chlamydia psittaci; Gram: n/a
Escherichia coli = experiment: Expected efficacy of antibiotic agents; conditions: expected efficacy against Escherichia coli; Gram: neg
Rickettsiae = conditions: expected efficacy against Rickettsiae; Gram: neg
Acinetobacter lwoffii = experiment: Expected efficacy of antibiotic agents; conditions: expected efficacy against Acinetobacter lwoffii; Gram: neg
[5] = system: Klebsiella (Calymmatobacterium); experiment: Expected efficacy of antibiotic agents; conditions: expected efficacy against Klebsiella (Calymmatobacterium); Gram: neg
Chlamydia trachomatis = experiment: Expected efficacy of antibiotic agents; conditions: expected efficacy against Chlamydia trachomatis; Gram: n/a
Serratia marcescens = experiment: Expected efficacy of antibiotic agents; conditions: expected efficacy against Serratia marcescens; Gram: neg
Enterobacter cloacae = experiment: Expected efficacy of antibiotic agents; conditions: expected efficacy against Enterobacter cloacae; Gram: neg
Moraxella catarrhalis = experiment: Expected efficacy of antibiotic agents; conditions: expected efficacy against Moraxella catarrhalis; Gram: neg
Haemophilus influenzae = experiment: Expected efficacy of antibiotic agents; conditions: expected efficacy against Haemophilus influenzae; Gram: neg
Streptococcus pneumoniae = experiment: Expected efficacy of antibiotic agents; conditions: expected efficacy against Streptococcus pneumoniae; Gram: pos
Klebsiella oxytoca = experiment: Expected efficacy of antibiotic agents; conditions: expected efficacy against Klebsiella oxytoca; Gram: neg
Citrobacter freundii = experiment: Expected efficacy of antibiotic agents; conditions: expected efficacy against Citrobacter freundii; Gram: neg
Campylobacter jejuni = experiment: Expected efficacy of antibiotic agents; conditions: expected efficacy against Campylobacter jejuni; Gram: neg
Candida species = experiment: Expected efficacy of antifungal agents; conditions: expected efficacy against Candida species
[6] = system: Corynebacterium urealyticum; experiment: Expected efficacy of antibiotic agents; conditions: expected efficacy against Corynebacterium urealyticum; Gram: pos
Yersinia pestis = conditions: expected efficacy against Yersinia pestis; Gram: neg
Shigella dysenteriae = experiment: Expected efficacy of antibiotic agents; conditions: expected efficacy against Shigella dysenteriae; Gram: neg
Salmonella typhi = experiment: Expected efficacy of antibiotic agents; conditions: expected efficacy against Salmonella typhi; Gram: neg
Neisseria gonorrhoeae = experiment: Expected efficacy of antibiotic agents; conditions: expected efficacy against Neisseria gonorrhoeae; Gram: neg
Shigella boydii = experiment: Expected efficacy of antibiotic agents; conditions: expected efficacy against Shigella boydii; Gram: neg
Shigella flexneri = experiment: Expected efficacy of antibiotic agents; conditions: expected efficacy against Shigella flexneri; Gram: neg
Shigella sonnei = experiment: Expected efficacy of antibiotic agents; conditions: expected efficacy against Shigella sonnei; Gram: neg
Haemophilus ducreyi = experiment: Expected efficacy of antibiotic agents; conditions: expected efficacy against Haemophilus ducreyi; Gram: neg
[7] = system: Haemophilus parainfluenzae; experiment: Expected efficacy of antibiotic agents; conditions: expected efficacy against Haemophilus parainfluenzae; Gram: neg

## CC[C@H]1OC(=O)[C@H](C)[C@@H](O[C@H]2C[C@@](C)(OC)[C@@H](O)[C@H](C)O2)[C@H](C)[C@@H](O[C@@H]2O[C@H](C)C[C@H](N(C)C)[C@H]2O)[C@](C)(O)C[C@@H](C)CN(C)[C@H](C)[C@@H](O)[C@]1(C)O [Azithromycin]
Providencia rettgeri
  Efficacy: no
Enterobacter sakazakii
  Efficacy: no
Morganella morganii
  Efficacy: no
Providencia stuartii
  Efficacy: no
Corynebacterium jeikeium
  Efficacy: no
Bartonella bacilliformis
  Efficacy: yes
Mycoplasma pneumoniae
  Efficacy: yes
Enterobacter aerogenes
  Efficacy: no
[1]
  Efficacy: no
Neisseria meningitidis
  Efficacy: yes
Streptococcus pyogenes
  Efficacy: yes
Bacteroides fragilis
  Efficacy: no
Legionella pneumophila
  Efficacy: yes
Proteus mirabilis
  Efficacy: no
Pseudomonas aeruginosa
  Efficacy: no
Brucella species
  Efficacy: no
Clostridium difficile
  Efficacy: no
Klebsiella pneumoniae
  Efficacy: no
[2]
  Efficacy: no
Chlamydia pneumoniae
  Efficacy: yes
Vibrio cholerae
  Efficacy: yes
Clostridium perfringens
  Efficacy: no
Enterococcus faecalis
  Efficacy: no
Francisella tularensis
  Efficacy: no
Acinetobacter baumannii
  Efficacy: no
Bordetella pertussis
  Efficacy: yes
[3]
  Efficacy: yes
[4]
  Efficacy: yes
Streptococcus agalactiae
  Efficacy: yes
Enterococcus faecium
  Efficacy: no
Proteus vulgaris
  Efficacy: no
Pseudomonas fluorescens
  Efficacy: no
Citrobacter diversus
  Efficacy: no
Chlamydia psittaci
  Efficacy: yes
Escherichia coli
  Efficacy: no
Rickettsiae
  Efficacy: yes
Acinetobacter lwoffii
  Efficacy: no
[5]
  Efficacy: no
Chlamydia trachomatis
  Efficacy: yes
Serratia marcescens
  Efficacy: no
Enterobacter cloacae
  Efficacy: no
Moraxella catarrhalis
  Efficacy: yes
Haemophilus influenzae
  Efficacy: yes
Streptococcus pneumoniae
  Efficacy: yes
Klebsiella oxytoca
  Efficacy: no
Citrobacter freundii
  Efficacy: no
Campylobacter jejuni
  Efficacy: yes

## C[C@@H]1[C@H](O)[C@@H](C)/C=C/C=C/CC/C=C/C=C/C=C/C=C/C(O[C@H]2O[C@H](C)[C@@H](O)[C@H](N)[C@@H]2O)CC2O[C@](O)(CC(O)C(O)CCC(O)CC(O)CC(O)CC(=O)O[C@H]1C)CC(O)C2C(=O)O (stereo partly shown) [Nystatin]
Candida species
  Efficacy: yes

## C/C(=C\C(=O)OCCCCCCCCC(=O)O)C[C@@H]1OC[C@H](C[C@@H]2O[C@H]2[C@@H](C)[C@H](C)O)[C@@H](O)[C@H]1O [Bactroban]
Providencia rettgeri
  Efficacy: no
Enterobacter sakazakii
  Efficacy: no
[6]
  Efficacy: no
Morganella morganii
  Efficacy: no
Providencia stuartii
  Efficacy: no
Corynebacterium jeikeium
  Efficacy: no
Bartonella bacilliformis
  Efficacy: no
Yersinia pestis
  Efficacy: no
Enterobacter aerogenes
  Efficacy: no
[1]
  Efficacy: yes
Neisseria meningitidis
  Efficacy: no
Shigella dysenteriae
  Efficacy: no
Streptococcus pyogenes
  Efficacy: yes
Salmonella typhi
  Efficacy: no
Legionella pneumophila
  Efficacy: no
Proteus mirabilis
  Efficacy: no
Pseudomonas aeruginosa
  Efficacy: no
Brucella species
  Efficacy: no
Klebsiella pneumoniae
  Efficacy: no
[2]
  Efficacy: no
Vibrio cholerae
  Efficacy: no
Clostridium perfringens
  Efficacy: no
Francisella tularensis
  Efficacy: no
Acinetobacter baumannii
  Efficacy: no
Bordetella pertussis
  Efficacy: no
Neisseria gonorrhoeae
  Efficacy: no
Shigella boydii
  Efficacy: no
[3]
  Efficacy: yes
Proteus vulgaris
  Efficacy: no
Pseudomonas fluorescens
  Efficacy: no
Citrobacter diversus
  Efficacy: no
Shigella flexneri
  Efficacy: no
Escherichia coli
  Efficacy: no
Rickettsiae
  Efficacy: no
Acinetobacter lwoffii
  Efficacy: no
Shigella sonnei
  Efficacy: no
[5]
  Efficacy: no
Haemophilus ducreyi
  Efficacy: no
Serratia marcescens
  Efficacy: no
Enterobacter cloacae
  Efficacy: no
Moraxella catarrhalis
  Efficacy: no
Haemophilus influenzae
  Efficacy: no
Klebsiella oxytoca
  Efficacy: no
Citrobacter freundii
  Efficacy: no
Campylobacter jejuni
  Efficacy: no

## O=C(O)c1cn(C2CC2)c2cc(N3CCNCC3)c(F)cc2c1=O [Ciprofloxacin]
Providencia rettgeri
  Efficacy: yes
Morganella morganii
  Efficacy: yes
Providencia stuartii
  Efficacy: yes
Corynebacterium jeikeium
  Efficacy: no
Bartonella bacilliformis
  Efficacy: yes
Yersinia pestis
  Efficacy: yes
Enterobacter aerogenes
  Efficacy: yes
[1]
  Efficacy: no
Neisseria meningitidis
  Efficacy: yes
Shigella dysenteriae
  Efficacy: yes
Bacteroides fragilis
  Efficacy: no
Salmonella typhi
  Efficacy: yes
Legionella pneumophila
  Efficacy: yes
Proteus mirabilis
  Efficacy: yes
Pseudomonas aeruginosa
  Efficacy: yes
Klebsiella pneumoniae
  Efficacy: yes
Chlamydia pneumoniae
  Efficacy: yes
Vibrio cholerae
  Efficacy: yes
Francisella tularensis
  Efficacy: yes
Neisseria gonorrhoeae
  Efficacy: yes
Shigella boydii
  Efficacy: yes
[4]
  Efficacy: yes
[7]
  Efficacy: yes
Enterococcus faecium
  Efficacy: no
Proteus vulgaris
  Efficacy: yes
Pseudomonas fluorescens
  Efficacy: yes
Citrobacter diversus
  Efficacy: yes
Shigella flexneri
  Efficacy: yes
Escherichia coli
  Efficacy: yes
Rickettsiae
  Efficacy: yes
Shigella sonnei
  Efficacy: yes
Serratia marcescens
  Efficacy: yes
Moraxella catarrhalis
  Efficacy: yes
Haemophilus influenzae
  Efficacy: yes
Klebsiella oxytoca
  Efficacy: yes
Citrobacter freundii
  Efficacy: yes
Campylobacter jejuni
  Efficacy: yes
